Source: patent publication EP0937460A2, “Use of an antidiarrheal for the manufacture of a medicament for the treatment of inflammatory conditions” (Adolor Corporation, priority 1994, dated 1995)
Counter-ions that a name gives are not always drawn. Like-named read-outs stand apart in the source and are kept apart here.

Columns and labels:
[1] = system: IL-1β; experiment: LPS-stimulated IL-1β production by THP-1 cells; type: cell-based, human
Experimental: (§1) THP-1 cells were plated into 24-well plates at a density of 1.0 x 10^6 cells per mL in 0.5 mL medium per well. […] For measurement of IL-1α and IL-1β production, THP-1 cells were incubated with 500 ng/mL or 50 ng/mL LPS and incubated for 16 hours. Levels of secreted cytokine were measured in cell supernatants as for TNF. Cell-associated species were measured in cell lysates which were prepared by repetitive freeze-thawing of cells. For in vitro screening, drugs at 10 µM concentration were co-administered with LPS. […] Drug effects on cell viability were assessed by the MTT assay. […] Water-soluble drugs were dissolved in aqueous solutions such as RPMI or deionized H20. The final concentration of DMSO in the incubation medium was at or below 0.01% and that of ethanol was at or below 0. 1%. The effect on cell viability was evaluated by the MTT assay.

[2] = system: TNF production; experiment: Inhibition of LPS-stimulated TNF production in the human monocytic cell line THP-1 (ELISA); type: cell-based; settings: for activity at 10 µM / inhibition at 10 µM: Homo sapiens; for activity at 10 µM: read-out: TNF LEVEL % Control (LPS alone), Ave. ± S.D.
Experimental: Cultures were maintained by the addition of fresh growth medium to a T-75 or T-150 flask of cells in suspension, or by pelleting the cells and re-suspending them in the appropriate volume of fresh medium. Maximum cell density was 1.0 x 10^6 cells per mL and cultures were seeded at a minimum density of 0.2 x 10^6 cells per ml.
as §1

[3] = system: THP-1 cells; experiment: MTT assay of THP-1 cell viability
Experimental: as §1

[4] = system: IL-1α; experiment: LPS-stimulated IL-1α production by THP-1 cells; type: cell-based, human
Experimental: as §1

[5] = system: TNF production; experiment: Inhibition of LPS-stimulated TNF production in the mouse macrophage line RAW 264.7 (ELISA); type: cell-based; settings: for activity at 10 µM: RAW264.7, 6 h, read-out: TNF LEVEL % Control (LPS alone), Ave. ± S.D.; for effectiveness against LPS-stimulated TNF production (in words): drug 10 µM
Experimental: Cells were passaged at confluence by scraping and routinely plated at a density of 0.25 x 10^6 and 0.5 x 10^6 cells per T-75 and T-150, respectively.
Typically, RAW cells were plated at 0.25 x 10^6 cells per well of a 24-well plate, in 0.5 mL media per well on the day prior to experimentation. […] 1%. Drugs were co-administered with the stimulant, LPS. After a 6-hr incubation period with LPS ± drug (n = 3-4), the media from the experimental wells was harvested, the cells were removed by microcentrifugation, and the media assayed for TNF by ELISA. Drugs were screened at 10 µM for their ability to alter TNF production by cells stimulated with 1 µg/mL or 10 ng/mL LPS. Dexamethasone, an anti-inflammatory corticosteroid, served as the reference for inhibition of the LPS response.

[6] = system: hairless mice; experiment: DNCB-induced contact hypersensitivity in hairless mice, ear swelling; type: in vivo, mouse
Experimental: Similar to what has been commonly reported by other investigators, the specific protocol used in these studies involved the application of DNCB (in an acetone:olive oil 4:1 vehicle) to the skin on the posterior portion of the back of hairless mice. Five days later, DNCB was applied to the dorsal surface of the ears. At the indicated time point, the mice were euthanized, ear thickness was measured, and the samples were processed for either RNA extraction, protein analysis, or histology.
Experiments were carried out in an effort to inhibit the DNCB-induced immune reaction with various drugs. […] The left ear was similarly treated with vehicle.
The ability of amiloride to suppress DNCB-induced ear swelling was also examined. In these experiments, mice were sensitized with DNCB, and, five days later, amiloride (2% w/v in 70% propylene glycol: 30% ethanol) was applied to the right ear and vehicle to the left ear 30 minutes and 8 hours after DNCB challenge.

[7] = system: TNF production; experiment: Inhibition of TPA-stimulated TNF production in human epidermal keratinocytes (ELISA); type: cell-based
[8] = system: hairless mice
Experimental: In addition to assessing the cytokine mRNA levels, the time course of the TPA-induced increase in skin thickness was also evaluated. This measurement was made with a micrometer using skin excised from euthanized mice. […] Further increases were typically seen 8 hours with this response being maintained through the 24 hour time point.
Three of the mice were euthanized at the 3 hour time point, and the treated sites were analyzed for TNF mRNA by RT-PCR. The fourth mouse was euthanized at a 24 hour time point, and the thickness of the treated areas of skin was measured using a micrometer.
At the 8 hours time point, the mice were euthanized, the treated areas of skin were excised, and the thickness of the skin was measured using a micrometer.

[9] = system: humans; experiment: Skin inflammation models in humans (2% sodium laurel sulfate or 5% nickel sulfate, 24 hour patch test); type: in vivo
Experimental: Human skin inflammation was elicited by either 2% sodium laurel sulfate in normal volunteers (irritant contact dermatitis) or by 5% nickel sulfate in nickel-sensitive individuals (allergic contact dermatitis) using a 24 hour patch test. Following the elicitation, either topical verapamil formulation or a placebo formulation was applied three times daily for two consecutive days on two respective sites. At the end of the two-day topical treatment, the degree of skin inflammation (i.e., erythema, edema and blister formation was assessed by a trained dermatologist. Skin biopsies were taken from the placebo and the active sites and analyzed for skin thickness and TNF levels using immunohistochemical techniques.

[10] = system: mice; experiment: Skin inflammation induced by 2% sodium lauryl sulfate (SLS) in mice; type: in vivo; settings: 2% SLS with near saturated verapamil
Experimental: Following the 24 hour exposure, the Hilltop chambers were removed and, after 18 hours, skin thickness readings were taken. […] Table

[11] = system: TNF mRNA; experiment: TPA-induced TNF mRNA expression in hairless mouse skin (RT-PCR); type: in vivo; settings: verapamil 4% w/v in ethanol, topical; 3 hour time point; p < 0.01
[12] = system: KC mRNA; experiment: TPA-induced KC mRNA expression in hairless mouse skin (RT-PCR); settings: verapamil 4% w/v topical; 3 hour; one of three mice; p = 0.04
[13] = Mus musculus, RAW cells, DRUG [10 µM], LPS at 10 ng/mL

N=C(N)NC(=O)c1nc(Cl)c(N)nc1N [Amiloride, amiloride]
level of cell-associated and secreted IL-1β (in words) ([1]; THP-1 cells, 10 µM): reduce the level | activity at 10 µM ([2]; 6 h, THP-1 cells, DRUG [10 µM], LPS 1 µg/mL): 56 ± 15% | inhibition at 10 µM ([2]; LPS-stimulated THP-1 cells, drug 10 µM, read-out: inhibition of TNF production): 40% | effectiveness against LPS-stimulated TNF production (in words) ([2]; LPS-stimulated THP-1 cells, 10 µM): comparatively more effective | IC50 value (50% of the maximal inhibition, as defined by effects at 10 µM) ([2]; LPS-stimulated TNF production, THP-1 cells): within the same range | THP-1 cell viability (MTT assay) [3]: did not impact | level of cell-associated and secreted IL-1α (in words) ([4]; THP-1 cells, 10 µM): reduce the level | activity at 10 µM [5, 13]: 75 ± 25% | effectiveness against LPS-stimulated TNF production (in words) ([5]; RAW cells): moderately effective | ear thickness, % of pre-challenge values ([6]; DNCB + amiloride 2% w/v topical (DNCB alone 135%), p < 0.002): 113% | activity at 10 µM ([7]; Homo sapiens, epidermal keratinocytes, HEK cells, DRUG [10 µM], stimulation by TPA 10 ng/mL, read-out: TNF LEVEL % Control (LPS alone), Ave. ± S.D.): ≥ 100%

CN(C)C(=O)C(CCN1CCC(O)(c2ccc(Cl)cc2)CC1)(c1ccccc1)c1ccccc1 [Loperamide, 4-(p-chlorophenyl)-4-hydroxy-N,N-dimethyl-α, α-diphenyl-1-piperidine butyramide HCL]
activity at 10 µM ([2]; THP-1, 6 h): 42 ± 22% | inhibition at 10 µM ([2]; THP-1, read-out: inhibition of TNF production, LPS-stimulated THP-1 cells, drug 10 µM): ~42% | skin thickness ([8]; TPA + loperamide 7.5% solution topical, 8 hour, first experiment (vehicle 0.36 mm, TPA 0.56 mm)): 0.39 mm | skin thickness ([8]; TPA + loperamide topical, second experiment (vehicle 0.39 mm, TPA 0.89 mm), p<0.01 vs. TPA alone): 0.57 mm | thickness of skin treated with drug alone compared to vehicle-treated skin ([8]; loperamide 7.5% alone, no TPA): unchanged | inhibition of the TPA-induced swelling response ([8]; loperamide topical, second experiment): 64% | TPA-induced increase in skin thickness / swelling response (in words) ([8]; topical application, loperamide: 8 hour time point, first experiment): completely inhibit | THP-1 cell viability (MTT assay) ([3]; highest dose tested): did not impact | activity at 10 µM ([5]; Mus musculus): 62 ± 32% | inhibition at 10 µM ([5]; Mus musculus, RAW264.7, read-out: inhibition of LPS-stimulated TNF secretion): 62% | effectiveness against LPS-stimulated TNF production (in words) ([5]; RAW cells): lowering of TNF levels | effect on TPA-stimulated levels of TNF (in words) ([7]; human keratinocytes, TPA 10 ng/mL, drug 10 µM): very effective

COc1ccc(CCN(C)CCCC(C#N)(c2ccc(OC)c(OC)c2)C(C)C)cc1OC (racemic) [(±)-Verapamil, verapamil]
inhibition at 0.05 µg/mL ([1]; Homo sapiens, THP-1, 16 h, read-out: inhibition of IL-1β levels): ~33% | activity at 10 µM ([2]; THP-1, 6 h): 46 ± 9% | inhibition at 10 µM ([2]; THP-1, read-out: inhibition of TNF production): 54% | patients in whom dermatitis resolved faster on treated sites ([9]; challenged with 2% sodium laurel sulfate): 2 out of 3 | patients with skin thickness less on treated sites than placebo sites ([9]; topical verapamil three times daily for two days): 4 out of 6 | patients with less TNF in the skin biopsies than placebo sites ([9]; topical verapamil three times daily for two days, immunohistochemistry): 4 out of 6 | THP-1 cell viability (MTT assay) ([3]; highest dose tested): did not impact | inhibition at 0.05 µg/mL ([4]; Homo sapiens, THP-1, 16 h, read-out: inhibition of IL-1α levels): 40 to 50% | Skin Thickness (mm, n = 4) ([10]; 24 hours occlusion, read 18 hours after removal (2% SLS alone 1.23, untreated 0.59)): 0.65 ± 0.09 mm | Visual Observation ([10]; 24 hours under occlusion): Normal | activity at 10 µM [5, 13]: 36 ± 1% | swelling of the ear after DNCB challenge ([6]; verapamil 4% w/v topical, initial experiment): some suppression | ear swelling after DNCB challenge ([6]; verapamil 5% w/v topical, n = 6, repeated experiment): significantly reduced | skin TNF mRNA levels compared to TPA alone [11]: significant reduction | KC mRNA levels [12]: significant suppression
